Measured values: patent US20090247554A1, “KINASE INHIBITORS” (TAKEDA SAN DIEGO, INC., priority 2006, published 2009)

biological target: T1, Aurora A Kinase (Homo sapiens, UniProt O14965); experiment: Determination of inhibition of AIK (Aurora A kinase) by direct fluorescence polarization (IMAP); format: biochemical; conditions: read-out: IC50 of Exemplified Compounds Against Aurora A Kinase
T1 sequence (O14965 1-403): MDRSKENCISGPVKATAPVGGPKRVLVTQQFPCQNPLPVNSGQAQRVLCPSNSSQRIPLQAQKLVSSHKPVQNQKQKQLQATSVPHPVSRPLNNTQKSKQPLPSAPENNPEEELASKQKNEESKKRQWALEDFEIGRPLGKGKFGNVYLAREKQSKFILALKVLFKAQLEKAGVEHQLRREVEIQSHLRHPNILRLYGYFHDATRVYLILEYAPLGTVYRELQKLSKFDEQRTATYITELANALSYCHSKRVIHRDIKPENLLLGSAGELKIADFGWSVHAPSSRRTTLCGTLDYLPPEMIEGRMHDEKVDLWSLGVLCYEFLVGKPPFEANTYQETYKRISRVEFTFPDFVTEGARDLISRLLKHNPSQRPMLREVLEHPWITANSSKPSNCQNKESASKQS
Method: A. Determination of Inhibition of AIK
The inhibitory properties of compounds relative to AIK may be determined by the Direct Fluorescence Polarization detection method (FP) using a Greiner small volume black 384-well-plate format under the following reaction conditions: 50 mM Hepes pH 7.3, 10 mM MgCl2, 10 mM NaCl, 1 mM DTT, 0.01% Brij35, 100 nM Fluorescein-LRRASLG peptide (provided by SYNPEP), 5% DMSO, 2.5 uM ATP. Detection of the reaction product is performed by addition of IMAP binding reagent (Molecular Devices). Reaction product may be determined quantitatively by FP using an Analyst HT plate reader (Molecular Devices) with an excitation wavelength at 485 nm and emission at 530 nm and using a Fluorescein 505 dichroic mirror.
The assay reaction may be initiated as follows: 2 ul of (3×) 300 nM Fl-Peptide/7.5 uM ATP was added to each well of the plate, followed by the addition of 2 ul of (3×) inhibitor (2.5 fold serial dilutions for 11 data points for each inhibitor) containing 15% DMSO. 2 ul of (3×) 7.5 nM AIK solution may be added to initiate the reaction (final enzyme concentration was 2.5 nM for AIK). The reaction mixture may then be incubated at room temperature for 45 min, and quenched and developed by addition of 20 ul of 1 to 400 diluted IMAP binding reagent in 1× proprietary IMAP binding buffer. Fluorescence polarization readings of the resulting reaction mixtures may be measured after a 60-minute incubation at room temperature.
IC50 values may be calculated by non-linear curve fitting of the compound concentrations and fluorescent polarization values to the standard IC50 equation.

Row | IC50 | SMILES
1 | ≤ 50 nM | CCS(=O)(=O)n1ccc2ccc(-c3nc(Nc4cc(C)[nH]n4)c4cc(C)sc4n3)cc21 [Example 3, 2-(1-(ethylsulfonyl)-1H-indol-6-yl)-6-methyl-N-(5-methyl-1H-pyrazol-3-yl)thieno[2,3-d]pyrimidin-4-amine]
2 | ≤ 50 nM | CCS(=O)(=O)n1cc(CN(C)C)c2ccc(-c3nc(Nc4cc(C)[nH]n4)c4cc(C)sc4n3)cc21 [Example 4, 2-(3-((dimethylamino)methyl)-1-(ethylsulfonyl)-1H-indol-6-yl)-6-methyl-N-(5-methyl-1H-pyrazol-3-yl)thieno[2,3-d]pyrimidin-4-amine]
3 | ≤ 50 nM | CCS(=O)(=O)c1cccc(-c2nc(Nc3cc(C)[nH]n3)c3cscc3n2)c1 [Example 5, [2-(3-Ethanesulfonyl-phenyl)-thieno[3,4-d]pyrimidin-4-yl]-(5-methyl-1H-pyrazol-3-yl)-amine]
4 | ≤ 50 nM | CCS(=O)(=O)n1ccc2ccc(-c3nc(Nc4cc(C)[nH]n4)c4cscc4n3)cc21 [Example 6, [2-(1-Ethanesulfonyl-1H-indol-6-yl)-thieno[3,4-d]pyrimidin-4-yl]-(5-methyl-1H-pyrazol-3-yl)-amine]
5 | ≤ 50 nM | CCS(=O)(=O)c1cccc(-c2nc(Nc3cc(C)[nH]n3)c3cc(C)sc3n2)c1 [Example 7, 2-(3-(ethylsulfonyl)phenyl)-6-methyl-N-(5-methyl-1H-pyrazol-3-yl)thieno[2,3-d]pyrimidin-4-amine]
6 | ≤ 50 nM | Cc1cc(Nc2nc(Sc3ccc(NC(=O)C4CC4)cc3)nc3sc(C)cc23)n[nH]1 [Example 8, N-(4-(6-Methyl-4-(5-methyl-1H-pyrazol-3-ylamino)thieno[2,3-d]pyrimidin-2-ylthio)phenyl)cyclopropanecarboxamide]
